From patent publication US11597724B2, “Herbicidally active 3-phenylisoxazoline-5-carboxamides of tetrahydro and dihydrofuran carboxylic acids and esters” (Bayer Aktiengesellschaft, priority 2017, dated 2023) come the findings set out here.

Holding throughout (assay type): in vivo
For assay [1], the system named is Avena fatua. The experiment in a line: Pre-emergence herbicidal activity against AVEFA. Conditions: Avena fatua, 504 h, dosage 80 g/ha, read-out: Pre-emergence herbicidal activity against AVEVA in % (AVEFA). The source says: 1. Pre-Emergence Herbicidal Action and Crop Plant Compatibility Seeds of monocotyledonous and dicotyledonous weed plants and crop plants are placed in plastic or wood fiber pots and covered with soil. The compounds of the invention, formulated in the form of wettable powders (WP) or as emulsion concentrates (EC), are then applied onto the surface of the covering soil as aqueous suspension or emulsion with addition of 0.5% additive at a water application rate of 600 l/ha (converted). After the treatment, the pots are placed in a greenhouse and kept under good growth conditions for the trial plants. After about 3 weeks, the effect of the preparations is scored visually in comparison with untreated controls as percentages. For example, 100% activity=the plants have died, 0% activity=like control plants. AMARE: Amaranthus retroflexus AVEFA: Avena fatua

Assay [2] relates to Echinochloa crus-galli. Description: Post-emergence herbicidal activity against ECHCG. Particulars: Echinochloa crus-galli, 504 h, dosage 320 g/ha, rated about 3 weeks after treatment. Summed up: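 Greenhouse pot plants sprayed post-emergence at one-leaf stage (2-3 weeks after sowing) with WP or EC formulations, 0.5% additive, 600 l/ha water. Visual rating about 3 weeks later versus untreated controls: 100% = plants dead, 0% = like control.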

In assay [3] the test system is Polygonum convolvulus. Description: Post-emergence herbicidal activity against POLCO. Conditions: Fallopia convolvulus, 504 h, dosage 320 g/ha, rated about 3 weeks after treatment. The essentials: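 Greenhouse weeds in sandy loam were sprayed at the one-leaf stage, 2–3 weeks after sowing, with WP or EC formulations plus 0.5% additive at 600 l/ha water. About 3 weeks later, damage was rated visually against untreated controls, where 100% means plants dead and 0% means like control.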

Assay [4] in a line: Post-emergence treatment, summary over harmful plants. Conditions: 504 h, application rate of 0.32 kg of active substance or less per hectare, read-out: herbicidal action, post-emergence treatment (very good herbicidal activity). Summed up: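 Greenhouse-grown weeds and crops were sprayed at the one-leaf stage (2–3 weeks post-sowing) with WP or EC formulations plus 0.5% additive at 600 l/ha water. About 3 weeks later, activity was visually rated against untreated controls (100% = dead plants, 0% = like control).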

Assay [5] deals with Veronica persica. Description: Post-emergence herbicidal activity against VERPE. Particulars: Veronica persica, 504 h, dosage 320 g/ha. Summed up: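 Greenhouse plants treated at one-leaf stage, 2–3 weeks after sowing, by spraying WP or EC formulations with 0.5% additive at 600 l/ha water. Visual rating about 3 weeks later versus untreated controls (100% = plants dead, 0% = like controls).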

`C=CC1(C(=O)NC2=C(C(=O)OCC)COC2)CC(c2cc(F)cc(F)c2)=NO1` (stereo not shown) [I-23, ethyl 4-[[3-(3,5-difluorophenyl)-5-vinyl-4H-isoxazole-5-carbonyl]amino]-2,5-dihydrofuran-3-carboxylate]: the pest or weed control at 80 g/ha in assay [1] amounted to 90%. The pest or weed control at 320 g/ha in assay [2] is 90%; in assay [3], 90%; in assay [4] it was 80 to 100%.

Take `COC(=O)[C@@]1(OC)C[C@@H](NC(=O)C2(C)CC(c3cccc(F)c3)=NO2)CO1` (stereo partly drawn) [I-47, methyl (2R,4R)-4-[[3-(3-fluorophenyl)-5-methyl-4H-isoxazole-5-carbonyl]amino]-2-methoxytetrahydrofuran-2-carboxylate]: the pest or weed control at 320 g/ha in assay [2] came out at 100%; in assay [3] it was 80%; in assay [5], 80%.

`C=C[C@]1(C(=O)N[C@@H]2CO[C@@H](C(=O)OC)C2)CC(c2cc(F)cc(F)c2)=NO1` (mixture of isomers) [I-56, methyl trans-4-[[(5S)-3-(3,5-difluorophenyl)-5-vinyl-4H-isoxazole-5-carbonyl]amino]tetrahydrofuran-2-carboxylate]: the pest or weed control at 320 g/ha was 90% in assay [2], 90% in assay [3], 90% in assay [5] and 80 to 100% in assay [4].

Take `COC(=O)C1COCC1NC(=O)C1(C)CC(c2cc(F)cc(F)c2)=NO1` (stereo not shown) [I-19, methyl 4-[[3-(3,5-difluorophenyl)-5-methyl-4H-isoxazole-5-carbonyl]amino]tetrahydrofuran-3-carboxylate]: the pest or weed control at 80 g/ha in assay [1] was found to be 80%. Also, the pest or weed control at 320 g/ha in assay [2] was 90%; in assay [3], 80%; in assay [5], 80%; in assay [4], 80 to 100%.

Regarding `COC(=O)C1COCC1NC(=O)C1(OC)CC(c2cc(F)cc(F)c2)=NO1` (stereo not shown) [I-27, methyl 4-[[3-(3,5-difluorophenyl)-5-methoxy-4H-isoxazole-5-carbonyl]amino]tetrahydrofuran-3-carboxylate], the pest or weed control at 80 g/ha in assay [1] was 90%. The pest or weed control at 320 g/ha is 80% in assay [3], 80% in assay [5] and 80 to 100% in assay [4].

For `C=CC1(C(=O)N[C@H]2CO[C@@H](C(=O)OC)C2)CC(c2cccc(F)c2)=NO1` (relative stereo) [I-07, methyl cis-4-[[3-(3-fluorophenyl)-5-vinyl-4H-isoxazole-5-carbonyl]amino]tetrahydrofuran-2-carboxylate], the pest or weed control at 320 g/ha is 80% in assay [2], 80% in assay [3], 80% in assay [5] and 80 to 100% in assay [4].

Consider `COC(=O)[C@H]1C[C@@H](NC(=O)C2(C(F)(F)F)CC(c3cc(F)cc(F)c3)=NO2)CO1` (relative stereo) [I-06, methyl cis-4-[[3-(3,5-difluorophenyl)-5-(trifluoromethyl)-4H-isoxazole-5-carbonyl]amino]tetrahydrofuran-2-carboxylate], for which the pest or weed control at 80 g/ha in assay [1] came out at 90%. Also, the pest or weed control at 320 g/ha in assay [2] is 90%; in assay [3], 80%; in assay [5], 80%; in assay [4] it was 80 to 100%.

Regarding `COC(=O)C1COCC1NC(=O)[C@@]1(C)CC(c2cc(F)cc(F)c2)=NO1` (stereo partly drawn) [I-28, methyl 4-[[(5R)-3-(3,5-difluorophenyl)-5-methyl-4H-isoxazole-5-carbonyl]amino]tetrahydrofuran-3-carboxylate], the pest or weed control at 80 g/ha in assay [1] worked out at 100%. Besides, the pest or weed control at 320 g/ha was 80% in assay [2], 80% in assay [3], 90% in assay [5] and 80 to 100% in assay [4].

Regarding `COC(=O)[C@H]1C[C@H](NC(=O)[C@@]2(C)CC(c3cc(F)cc(F)c3)=NO2)CO1` (mixture of isomers) [I-55, methyl trans-4-[[(5R)-3-(3,5-difluorophenyl)-5-methyl-4H-isoxazole-5-carbonyl]amino]tetrahydrofuran-2-carboxylate], the pest or weed control at 320 g/ha in assay [2] was 90%; in assay [3], 90%; in assay [5] it was 90%; in assay [4], 80 to 100%.

As to `COC(=O)[C@H]1C[C@@H](NC(=O)C2(OC)CC(c3ccccc3)=NO2)CO1` (relative stereo) [I-14, methyl cis-4-[(5-methoxy-3-phenyl-4H-isoxazole-5-carbonyl)amino]tetrahydrofuran-2-carboxylate], the pest or weed control at 320 g/ha in assay [2] is 80%; in assay [3], 90%; in assay [5] it was 80%; in assay [4] it was 80 to 100%.

`COC(=O)[C@H]1C[C@@H](NC(=O)C2(OC)CC(c3cc(C)cc(Br)c3)=NO2)CO1` (relative stereo) [I-08, methyl cis-4-[[3-(3-bromo-5-methylphenyl)-5-methoxy-4H-isoxazole-5-carbonyl]amino]tetrahydrofuran-2-carboxylate]: the pest or weed control at 320 g/ha was 90% in assay [2], 80% in assay [3], 80% in assay [5] and 80 to 100% in assay [4].

With `C=CC1(C(=O)N[C@H]2CO[C@@H](C(=O)OC)C2)CC(c2cc(Cl)cc(Cl)c2)=NO1` (relative stereo) [I-03, methyl cis-4-[[3-(3,5-dichlorophenyl)-5-vinyl-4H-isoxazole-5-carbonyl]amino]tetrahydrofuran-2-carboxylate], the pest or weed control at 320 g/ha is 80% in assay [2], 80% in assay [3], 80% in assay [5] and 80 to 100% in assay [4].

On to `COC(=O)C1=C[C@H](NC(=O)C2(C)CC(c3cccc(F)c3)=NO2)CO1` (stereo partly drawn) [I-39, methyl (3S)-3-[[3-(3-fluorophenyl)-5-methyl-4H-isoxazole-5-carbonyl]amino]-2,3-dihydrofuran-5-carboxylate], for which the pest or weed control at 320 g/ha in assay [2] was 100%; in assay [3], 80%; in assay [5], 80%.

Turning to `COC(=O)[C@H]1C[C@@H](NC(=O)C2(C)CC(c3cc(F)cc(F)c3)=NO2)CO1` (relative stereo) [I-01, methyl cis-4-[[3-(3,5-difluorophenyl)-5-methyl-4H-isoxazole-5-carbonyl]amino]tetrahydrofuran-2-carboxylate], the pest or weed control at 80 g/ha in assay [1] came to 90%. Moreover, the pest or weed control at 320 g/ha was 90% in assay [2], 80% in assay [3], 80% in assay [5] and 80 to 100% in assay [4].

Take `COC(=O)C1COCC1NC(=O)C1(OC)CC(c2cc(Cl)cc(Cl)c2)=NO1` (stereo not shown) [I-29, methyl 4-[[3-(3,5-dichlorophenyl)-5-methoxy-4H-isoxazole-5-carbonyl]amino]tetrahydrofuran-3-carboxylate]: the pest or weed control at 80 g/ha in assay [1] was found to be 80%. The pest or weed control at 320 g/ha in assay [2] is 90%; in assay [3] it was 80%; in assay [5] it was 90%; in assay [4], 80 to 100%.

`COC(=O)[C@H]1C[C@@H](NC(=O)C2(C)CC(c3cc(C)cc(Br)c3)=NO2)CO1` (relative stereo) [I-04, methyl cis-4-[[3-(3-bromo-5-methylphenyl)-5-methyl-4H-isoxazole-5-carbonyl]amino]tetrahydrofuran-2-carboxylate]: the pest or weed control at 320 g/ha in assay [2] was 90%; in assay [3] it was 80%; in assay [5], 80%; in assay [4], 80 to 100%.
